Columns and labels:
[1] = target: T1, airway epithelial Na+ channels (Homo sapiens, UniProt P37088+P51168+P51170); assay: Short-circuit current (Isc) measurement of sodium transport in cultured human nasal epithelium, Ussing chamber; type: cell-based; conditions: for concentration achieving the same level of complete sodium channel blocking, less than amiloride: apical surface of human nasal epithelium, relative to amiloride
T1 construct: Cells from freshly excised specimens are protease isolated; endogenous in cells
T1 sequence (P37088 1-669): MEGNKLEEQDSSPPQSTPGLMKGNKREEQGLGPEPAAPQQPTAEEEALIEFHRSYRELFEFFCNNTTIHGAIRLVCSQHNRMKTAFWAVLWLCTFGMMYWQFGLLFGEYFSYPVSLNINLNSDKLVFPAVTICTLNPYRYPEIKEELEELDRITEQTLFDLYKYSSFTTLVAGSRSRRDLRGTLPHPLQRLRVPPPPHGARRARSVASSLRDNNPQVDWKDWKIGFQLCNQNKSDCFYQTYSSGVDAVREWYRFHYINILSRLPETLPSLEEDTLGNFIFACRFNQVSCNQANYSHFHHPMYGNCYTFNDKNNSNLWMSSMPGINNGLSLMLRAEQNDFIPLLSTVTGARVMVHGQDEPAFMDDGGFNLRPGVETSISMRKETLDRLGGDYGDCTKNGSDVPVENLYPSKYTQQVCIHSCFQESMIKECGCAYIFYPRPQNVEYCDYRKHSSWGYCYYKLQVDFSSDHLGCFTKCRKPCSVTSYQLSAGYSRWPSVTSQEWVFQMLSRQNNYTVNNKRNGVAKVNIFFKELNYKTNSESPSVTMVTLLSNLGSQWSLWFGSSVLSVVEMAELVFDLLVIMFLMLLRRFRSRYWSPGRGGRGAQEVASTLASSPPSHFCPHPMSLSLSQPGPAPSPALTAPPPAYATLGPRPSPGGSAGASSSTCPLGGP
T1 sequence (P51168 1-640): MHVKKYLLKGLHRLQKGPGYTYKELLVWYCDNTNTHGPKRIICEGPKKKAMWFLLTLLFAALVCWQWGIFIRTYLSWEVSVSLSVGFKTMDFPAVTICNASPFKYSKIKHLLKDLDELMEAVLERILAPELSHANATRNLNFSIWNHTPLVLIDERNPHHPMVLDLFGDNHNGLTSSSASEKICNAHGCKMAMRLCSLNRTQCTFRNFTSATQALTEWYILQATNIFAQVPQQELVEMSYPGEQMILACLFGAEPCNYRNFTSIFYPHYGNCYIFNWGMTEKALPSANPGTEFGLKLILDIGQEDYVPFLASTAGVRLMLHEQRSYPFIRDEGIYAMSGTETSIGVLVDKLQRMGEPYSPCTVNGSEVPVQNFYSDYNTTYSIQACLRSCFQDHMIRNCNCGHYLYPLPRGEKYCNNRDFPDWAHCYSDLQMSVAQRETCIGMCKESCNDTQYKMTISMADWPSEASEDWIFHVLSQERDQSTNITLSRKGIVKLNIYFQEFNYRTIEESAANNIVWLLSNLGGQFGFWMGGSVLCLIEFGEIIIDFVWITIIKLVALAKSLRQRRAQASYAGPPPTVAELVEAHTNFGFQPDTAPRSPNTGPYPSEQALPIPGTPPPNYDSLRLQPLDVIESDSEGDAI
T1 sequence (P51170 1-649): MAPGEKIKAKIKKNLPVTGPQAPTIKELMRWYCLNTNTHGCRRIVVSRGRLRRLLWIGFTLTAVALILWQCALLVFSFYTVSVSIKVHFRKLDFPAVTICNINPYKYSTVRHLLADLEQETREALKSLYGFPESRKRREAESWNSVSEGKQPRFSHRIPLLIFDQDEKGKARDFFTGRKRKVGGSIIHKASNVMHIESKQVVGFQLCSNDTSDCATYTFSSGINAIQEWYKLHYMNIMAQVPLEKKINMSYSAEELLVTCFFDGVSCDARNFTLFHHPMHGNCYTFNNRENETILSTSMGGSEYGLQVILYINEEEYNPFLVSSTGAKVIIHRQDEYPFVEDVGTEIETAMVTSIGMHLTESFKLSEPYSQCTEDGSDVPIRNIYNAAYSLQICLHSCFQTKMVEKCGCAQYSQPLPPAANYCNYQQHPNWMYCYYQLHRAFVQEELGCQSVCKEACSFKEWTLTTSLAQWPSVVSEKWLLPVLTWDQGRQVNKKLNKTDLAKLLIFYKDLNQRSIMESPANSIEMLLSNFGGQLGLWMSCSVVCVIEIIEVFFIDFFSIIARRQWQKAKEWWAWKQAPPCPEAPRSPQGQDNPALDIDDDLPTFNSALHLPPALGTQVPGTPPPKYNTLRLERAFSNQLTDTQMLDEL
Method: The cell culture procedures used in this example are performed as described in Willumsen, N. J., et al., Am. J. Physiol. 256:C1033-C1044 (Cell. Physiol. 25) (1989) and Yankaskas, J. R., et al., Am. Rev. Respir. Dis. 132:1281-1287 (1985). Cells from freshly excised specimens are protease isolated with protease XIV (Sigma, St, Louis, Mo.), concentrated,and plated on collagen membranes in the bottom of plastic-tissue culture cups. The cells are fed for 5 days with serum-free F-12 medium containing the following additives (F-12/7X): insulin, epidermal growth factor, cholera toxin, transferrin, hydrocortisone, triiodothyronine, and endothelial cell growth substance. Subsequently, they are fed with F-12/7X media supplemented (1:1) with 3T3 fibroblast-conditioned media containing 1% fetal bovine serum. After the fifth day in culture, the transepithelial potential difference (PD) developed by the culture is measured daily to detect the occurrence of confluency. Cell preparations are routinely studied within 1 day of the development of the maximal PD.
J. Physiol. (Cell Physiol. 25) 256:C1033-C1053 (1989).
The tissue preparation described in Example 1 is mounted in a modified (superfusion, not recirculating), miniature Ussing chamber interfaced to a voltage clamp that measures transepithelial PD and the PD response to constant current (I) pulses. The chamber contains 1 ml of bathing solution for each (apical; basolateral) surface of the preparation. The solution used as the vehicle for drug delivery is a Krebs bicarbonate Ringer solution (KBR) which approximates the ionic composition of plasma. This solution is warmed (37°) and gassed (95% oxygen, 5% CO2) to maintain pH 7.4. The cultured cells are superfused on both surfaces with KBR.
The measurement of sodium transport rates is performed by recording the spontaneous transepithelial PD (Vt) and responses of the PD to constant current pulses. From the relationship between Vt and induced Vt deflections, the transepithelial resistance (Rt) is calculated. The short-circuit current (Isc), or measure of sodium transport rate, is determined as Isc =Vt /Rt.
Each cultured human airway epithelial preparation is exposed to different concentrations (10^-8 M-10^-3 M) of a sodium-channel blocking drug on either the basolateral or apical surface for the dose response studies. To construct concentration-effect relationships of the response to the drugs, it was assumed that the same maximum response to a drug could be induced from each tissue culture preparation from the same individual.

[2] = target: T1, airway epithelial Na+ channels; assay: Persistence of Na+ absorption blockade after washout of drug, Ussing chamber; type: cell-based; conditions: 10^-5 M for 5 minutes to the luminal surface, then KBR perfusion; time for Isc to return to basal
Excerpt: In vivo, drug is delivered to the lungs as a single bolus. […] This Example illustrates the contribution of binding of drug to the target site (2) to the duration of drug action.
A protocol was designed to measure the duration of drug action after removal of drug from the airway surface liquid compartment. For this protocol, human airway epithelial preparations as described in Example 1 are mounted in modified Ussing chambers and interfaced to voltage clamps as described above in Example 2. Basal measurements of Isc in KBR are made and the steady state response to a 5 minute administration of a single maximal effective concentration (10^-5 M) of drug delivered to the luminal surface is measured. Following this step, administration of the drug is stopped, the lumen is perfused with standard KBR solutions, and the time required for Isc to return to baseline or basal levels is measured.

For `N=C(N)NC(=O)c1nc(Cl)c(N)nc1N` [amiloride], the “potency as blocker of apical Na+ channels (in words)” value ([1]; steady-state inhibition of Na+ transport, human nasal epithelia) was “significantly less potent than benzamil or phenamil”.

`NC(=NCc1ccccc1)NC(=O)c1nc(Cl)c(N)nc1N` [benzamil, 3,5-diamino-6-chloro-N-(benzylaminoaminomethylene)pyrazinecarboxamide] was tested, and the “duration of activity after washout compared to amiloride” value [2] was “almost twice as long as amiloride”, the “concentration achieving the same level of complete sodium channel blocking, less than amiloride” value [1] was “approximately one” and the “potency compared to amiloride (more potent by)” value [1] was 1-1.5 log-concentration units.

`NC(=Nc1ccccc1)NC(=O)c1nc(Cl)c(N)nc1N` [phenamil, 3,5-diamino-6-chloro-N-(phenylaminoaminomethylene)pyrazinecarboxamide] was tested, and the “duration of activity after washout compared to amiloride” value [2] was “almost twice as long as amiloride”, the “concentration achieving the same level of complete sodium channel blocking, less than amiloride” value [1] was “approximately one” and the “potency compared to amiloride (more potent by)” value [1] was 1-1.5 log-concentration units.

Reference: patent publication US5656256A (The University of North Carolina at Chapel Hill, priority 1994, dated 1997)
